Laboratory results as given in US7771713B2, “Chemical composition that attract arthropods” (priority 1999, dated 2010).

How the values were obtained:
Type in all cases: in vivo
[1] = system: Aedes aegypti; assay: Olfactometer attraction test, treatment port vs control port, approximately 75 female mosquitoes; conditions: for Response with Ace (%): base compound together with acetone; for Response with L-LA (%): compound 500 μL together with L-lactic acid; for Δ [(Resp with LA) − Resp] (%): difference between response with L-lactic acid and response alone; for Δ [(Resp with Ace) − Resp] (%): difference between response with acetone and response alone; for caught in CK (check or control port): compound alone 500 μL in treatment port
Method: The tests were conducted in an olfactometer (55 ft^3/min airflow, 80° F., 60% R.H.) as described by Posey, J. Med. Entomol., 35, 330-334 (1998); and LA is lactic acid. Mosquitoes were allowed to settle at least one hour prior to testing. The olfactometer was cleaned after each battery of tests. Each battery consisted of three tests, conducted at 08:30, 11:00 and 13:00 hours local time. Each of the three tests was conducted in a separate cage. The control consisted of identical sample delivery devices and conditions compared to that of the treatment side. Both the treatment and control ports were opened and closed simultaneously when inserting a new treatment/control.

[2] = system: Anopheles albimanus; assay: Olfactometer attraction test of compounds and compositions;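 note: olfactometer with a treatment port and a matching control port using identical delivery device and conditions, both opened together, three tests per battery, each run in its own cage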
[3] = system: Aedes albopictus; assay: as above; conditions: single treatment, 1B (1 black cap)
Source text: The olfactometer was cleaned after each battery of tests.

[4] = base compound alone (mode of action similar to lactic acid)
[5] = compound alone, high dose of 500 μL
[6] = single compound, dose 500 (μL), 60 mL glass petri dish, Aedes aegypti attraction
[7] = no Base, Activator1 dose 500, 60 mL glass petri dish

SMILES: C=CC(=C)C [isoprene]
- Response (%) [1, 4]: 12%
- Response with Ace (%) [1]: 56%
- Response with L-LA (%) [1]: 23%
- Response (%) [1, 5]: 12%
- Δ [(Resp with LA) − Resp] (%) [1]: 11%
- Δ [(Resp with Ace) − Resp] (%) [1]: 44%
- % caught ([2]; single treatment, 500 μL): 0.0%

SMILES: CCCC=O [butyraldehyde]
- Response (%) [1, 4]: 6%
- Response with Ace (%) [1]: 7%
- Response with L-LA (%) [1]: 7%
- Response (%) [1, 5]: 6%
- Δ [(Resp with LA) − Resp] (%) [1]: 1%
- Δ [(Resp with Ace) − Resp] (%) [1]: 1%
- % caught ([2]; single treatment, 500 μL): 1.3%

SMILES: CCCCCCC(=O)CC [3-nonanone]
- Response with L-LA (%) [1]: 9%
- Response (%) [1, 5]: 4%
- Δ [(Resp with LA) − Resp] (%) [1]: 5%
- Response Avg % [1, 6]: 4.0%
- % caught ([2]; single treatment, 500 μL): 15.8%

SMILES: CCCCCC(C)=O [2-heptanone]
- Response with L-LA (%) [1]: 42%
- Response (%) [1, 5]: 17%
- Δ [(Resp with LA) − Resp] (%) [1]: 25%
- % caught ([2]; single treatment, 500 μL): 10.4%

SMILES: CSC [dimethyl sulfide]
- Response with L-LA (%) [1]: 79%
- Response (%) [1, 5]: 32%
- Δ [(Resp with LA) − Resp] (%) [1]: 47%
- % caught ([2]; single treatment, 500 μL): 68.4%

SMILES: N#CCc1ccccc1 [phenylacetonitrile]
- Response with L-LA (%) [1]: 63%
- Response (%) [1, 5]: 16%
- Δ [(Resp with LA) − Resp] (%) [1]: 47%
- % caught ([2]; single treatment, 500 μL): 1.3%

SMILES: CCC(=O)C(C)C [2-methyl-3-pentanone]
- Response with L-LA (%) [1]: 9%
- Response (%) [1, 5]: 1%
- Δ [(Resp with LA) − Resp] (%) [1]: 8%
- Response Avg % [1, 6]: 1.0%
- % caught ([2]; single treatment, 500 μL): 5.3%

SMILES: CCSCC [diethyl sulfide]
- Response with L-LA (%) [1]: 54%
- Response (%) [1, 5]: 15%
- Δ [(Resp with LA) − Resp] (%) [1]: 39%
- % caught ([2]; single treatment, 500 μL): 33.3%

SMILES: CSSC [dimethyl disulfide]
- Response with L-LA (%) [1]: 86%
- Response (%) [1, 5]: 36%
- Δ [(Resp with LA) − Resp] (%) [1]: 50%
- % caught ([2]; single treatment, 500 μL): 97.3%

SMILES: CCCCC(=O)CC [3-heptanone]
- Response with L-LA (%) [1]: 36%
- Response (%) [1, 5]: 12%
- Δ [(Resp with LA) − Resp] (%) [1]: 24%
- % caught ([2]; single treatment, 500 μL): 11.3%

SMILES: C=CC(=O)CC [1-penten-3-one]
- Response with L-LA (%) [1]: 23%
- Response (%) [1, 5]: 19%
- Δ [(Resp with LA) − Resp] (%) [1]: 4%
- % caught ([2]; single treatment, 500 μL): 29.3%

SMILES: CC(=O)C(C)C [3-methyl-2-butanone]
- Response with L-LA (%) [1]: 82%
- Response (%) [1, 5]: 8%
- Δ [(Resp with LA) − Resp] (%) [1]: 74%
- % caught ([2]; single treatment, 500 μL): 24.4%

SMILES: C=CSCC [ethyl vinyl sulfide]
- Response with L-LA (%) [1]: 55%
- Response (%) [1, 5]: 18%
- Δ [(Resp with LA) − Resp] (%) [1]: 37%
- Response Avg % [1, 7]: 18.0%
- % caught ([2]; single treatment, 500 μL): 25.4%

SMILES: CC(=O)c1ccccc1 [acetophenone]
- Response with L-LA (%) [1]: 46%
- Response (%) [1, 5]: 9%
- Δ [(Resp with LA) − Resp] (%) [1]: 37%
- % caught ([2]; single treatment, 500 μL): 7.9%

SMILES: CCCCCCCC(C)=O [2-nonanone]
- Response with L-LA (%) [1]: 12%
- Response (%) [1, 5]: 8%
- Δ [(Resp with LA) − Resp] (%) [1]: 4%
- % caught ([2]; single treatment, 500 μL): 27.0%

SMILES: CCCC(=O)CCC [4-heptanone]
- Response with L-LA (%) [1]: 32%
- Response (%) [1, 5]: 12%
- Δ [(Resp with LA) − Resp] (%) [1]: 20%
- % caught ([2]; single treatment, 500 μL): 8.0%

SMILES: Cc1ccco1 [2-methylfuran]
- Response with L-LA (%) [1]: 52%
- caught in CK (check or control port) ([1]; mosquitoes in control port): 30%
- Response (%) [1, 5]: 15%
- Δ [(Resp with LA) − Resp] (%) [1]: 37%
- % caught ([2]; single treatment, 500 μL): 35.5%

SMILES: CC(=O)C(=O)O [Pyruvic Acid]
- Response Avg % ([1]; Base alone, dose 50 uL): 30.7%
- % caught ([2]; single treatment, 500 μL): 1.4%

SMILES: CCCCCCCCC(C)=O [2-decanone]
- Response with L-LA (%) [1]: 24%
- Response (%) [1, 5]: 14%
- Δ [(Resp with LA) − Resp] (%) [1]: 10%
- % caught ([2]; single treatment, 500 μL): 4.0%

SMILES: CCCC(=O)CC [3-hexanone]
- Response with L-LA (%) [1]: 39%
- Response (%) [1, 5]: 1%
- Δ [(Resp with LA) − Resp] (%) [1]: 38%
- Response Avg % [1, 6]: 1.0%
- % caught ([2]; single treatment, 500 μL): 8.3%

SMILES: CC(=O)CCC=C(C)C [6-methyl-5-hepten-2-one]
- Response with L-LA (%) [1]: 16%
- Response (%) [1, 5]: 9%
- Δ [(Resp with LA) − Resp] (%) [1]: 27%
- % caught ([2]; single treatment, 500 μL): 26.0%

SMILES: CC(=O)CC(C)C [4-methyl-2-pentanone]
- Response with L-LA (%) [1]: 64%
- Response (%) [1, 5]: 0%
- Δ [(Resp with LA) − Resp] (%) [1]: 64%
- Response Avg % [1, 6]: 0.0%
- % caught ([2]; single treatment, 500 μL): 1.3%

SMILES: CCC(C)C(C)=O (stereo not shown) [3-methyl-2-pentanone]
- Response with L-LA (%) [1]: 9%
- Response (%) [1, 5]: 8%
- Δ [(Resp with LA) − Resp] (%) [1]: 1%
- % caught ([2]; single treatment, 500 μL): 17.1%

SMILES: CCCCC(=O)CCCC [5-nonanone]
- Response with L-LA (%) [1]: 47%
- Response (%) [1, 5]: 14%
- Δ [(Resp with LA) − Resp] (%) [1]: 33%
- % caught ([2]; single treatment, 500 μL): 12.7%

SMILES: ClC(Cl)(Cl)Cl [carbon tetrachloride]
- Response with L-LA (%) [1]: 92%
- Response (%) [1, 5]: 92%
- Δ [(Resp with LA) − Resp] (%) [1]: 0%
- % caught ([2]; single treatment, 500 μL): 74.0%

SMILES: S=C=S [carbon disulfide]
- Response with L-LA (%) [1]: 89%
- Response (%) [1, 5]: 82%
- Δ [(Resp with LA) − Resp] (%) [1]: 7%
- % caught ([2]; single treatment, 500 μL): 56.0%

SMILES: CCCCCCC(C)=O [2-octanone]
- Response with L-LA (%) [1]: 16%
- Response (%) [1, 5]: 8%
- Δ [(Resp with LA) − Resp] (%) [1]: 8%
- % caught ([2]; single treatment, 500 μL): 28.6%

SMILES: ClC(Cl)Cl [chloroform]
- Response with L-LA (%) [1]: 76%
- Response (%) [1, 5]: 24%
- Δ [(Resp with LA) − Resp] (%) [1]: 52%
- % caught ([2]; in vivo): 78.7%

SMILES: NCCCCN [1,4-Diaminobutane]
- % caught [3]: 6.8%

SMILES: N#Cc1ccccc1 [benzonitrile]
- Response with L-LA (%) [1]: 48%
- Response (%) [1, 5]: 4%
- Δ [(Resp with LA) − Resp] (%) [1]: 42%
- Response Avg % [1, 6]: 4.0%
- % caught ([2]; single treatment, 500 μL): 3.8%

SMILES: CCCCC(C)=O [2-hexanone]
- Response with L-LA (%) [1]: 51%
- Response (%) [1, 5]: 3%
- Δ [(Resp with LA) − Resp] (%) [1]: 48%
- Response Avg % [1, 6]: 3.0%
- % caught ([2]; single treatment, 500 μL): 4.3%

SMILES: Cc1ccc(O)cc1 [p-cresol]
- Response with L-LA (%) [1]: 32%
- Response (%) [1, 5]: 5%
- Δ [(Resp with LA) − Resp] (%) [1]: 27%
- Response Avg % [1, 6]: 5.0%
- % caught ([2]; single treatment, 500 μL): 29.5%

SMILES: CCC(C)=O [2-butanone]
- Response with L-LA (%) [1]: 81%
- Response (%) [1, 5]: 28%
- Δ [(Resp with LA) − Resp] (%) [1]: 53%
- % caught ([2]; single treatment, 500 μL): 47.9%

SMILES: C=CC(C)=O [3-buten-2-one]
- Response with L-LA (%) [1]: 39%
- caught in CK (check or control port), with L-LA ([1]; compound 500 μL with L-lactic acid in treatment port, mosquitoes in control port): 51%
- caught in CK (check or control port) ([1]; mosquitoes in control port): 61%
- Response (%) [1, 5]: 31%
- Δ [(Resp with LA) − Resp] (%) [1]: 8%
- Response Avg % [1, 7]: 31.0%
- % caught ([2]; single treatment, 500 μL): 45.2%

SMILES: CSSSC [dimethyl trisulfide]
- Response with L-LA (%) [1]: 67%
- Response (%) [1, 5]: 21%
- Δ [(Resp with LA) − Resp] (%) [1]: 46%
- Response Avg % [1, 7]: 21.0%
- % caught ([2]; single treatment, 500 μL): 91.8%

SMILES: CCCSSC [methyl propyl disulfide]
- Response with L-LA (%) [1]: 40%
- Response (%) [1, 5]: 19%
- Δ [(Resp with LA) − Resp] (%) [1]: 21%
- % caught ([2]; single treatment, 500 μL): 12.3%

SMILES: CC(=O)C(C)O (stereo not shown) [3-hydroxy-2-butanone]
- Response (%) [1, 4]: 9%
- Response with Ace (%) [1]: 57%
- Response with L-LA (%) [1]: 35%
- Response (%) [1, 5]: 11%
- Δ [(Resp with LA) − Resp] (%) [1]: 24%
- Δ [(Resp with Ace) − Resp] (%) [1]: 48%
- % caught ([2]; single treatment, 500 μL): 1.3%

SMILES: O=Cc1ccccc1 [benzaldehyde]
- Response with L-LA (%) [1]: 21%
- Response (%) [1, 5]: 9%
- Δ [(Resp with LA) − Resp] (%) [1]: 12%
- % caught ([2]; single treatment, 500 μL): 35.5%
